# Assays:
# [1] = test system: Human airway smooth muscle (ASM) cells; assay: Human ASM cell proliferation (MTT) after TNF-α stimulation; type: cell-based; conditions: ajulemic acid 0-30 μmoles, 60 minutes, then 1 ng/ml TNF-α for 48 hours, FIG. 1
# Experimental: Human airway smooth muscle (ASM) (also known as human bronchial smooth muscle (HBSM)) cells were obtained cryopreserved from Cambrex Bio Science (Walkersville, Md.) at passage 3. See, Ethier and Madison, Cell Calcium, 32:31-38 (2002) and Zhong et al., Am. J Respir Cell Mol. Biol., 30:118-125 (2004). Cultures were characterized as smooth muscle cells by positive immunostaining for smooth muscle actin and negative for Factor VIII. Cells were seeded and grown in smooth muscle basal medium (SMBM, Cambrex Bio Science) supplemented with 5% fetal bovine serum, 5 μg/ml insulin, 0.5 ng/ml epidermal growth factor, 2 ng/ml fibroblast growth factor, gentamicin, and amphotericin. Cells were maintained at 37° C. in a humidified atmosphere (5% CO2), fed every 48 hours, and passaged when confluent. Shortly after passaging, ajulemic acid (synthesized by Organix, Inc., Woburn, Mass.) was added to growth media to a concentration of 0-30 μmoles. Cells were incubated for 60 minutes, and then stimulated with 1 ng/ml TNF-α for 48 hours. After 48 hours, cell proliferation was evaluated using the Cell Proliferation Kit I (MTT) from Roche Diagnostics (Indianapolis, Ind.), which provides a measure of cell number as a function of optical density.
# MMP-1 = MMP-1 mRNA Northern blot in stimulated FLS cells; type: cell-based, human; conditions: FLS treated 60 minutes with AjA, then 10 ng/mL TNFα+1 ng/mL GMCSE for 4 hours; FIG. 4
# Experimental: Human fibroblast-like synovial cells (FLS) were obtained from synovial tissue or synovial fluid, and grown to confluence in 6 well tissue culture plates. Cells were treated or not for 60 minutes with AjA, then stimulated with 10 ng/mL TNFα+1 ng/mL GMCSE for 4 hours. MMP-1 mRNA content measured by Northern blot analysis.
# Cells were harvested and resuspended in TRIZOL® solution (GIBCO-BRL) to extract total cellular RNA. The RNA was resuspended in diethylpyrocarbonate (DEPC)-treated water. Total RNA (15 μg) was separated by electrophoresis in 1% agarose/17.6% formaldehyde gels. The RNA was transferred overnight from the denaturing gel onto Hybond-N^+ (Amersham Pharmacia Biotech Inc., Piscataway, N.J.) by capillary action using […] buffer ([…]). The RNA was cross-linked to the filter by ultraviolet irradiation for 20 seconds using a UV Crosslinker (Spectronics Corporation, Westbury, N.Y.) and the blots were hybridized with a solution of 5×SSC, 5× Denhardt's solution, 0.5% SDS, and 10 mg/ml sonicated salmon sperm DNA for 5 hours at 65° C., and 10^7 cpm/ml radio-labeled cDNA generated by random priming with ^32P-dCTP ([…], NEN, Boston, Mass.). Probes specific for the MMP-1 gene were heat denatured and added to the prehybridization buffer for hybridization overnight at 65° C. […]
# human ASM cells = assay: Fura-2 calcium transients in agonist-stimulated ASM cells; type: cell-based; conditions: ajulemic acid 10 μM or 20 μM for 10 minutes, F340/F380 ratio, p<0.01 versus control
# Experimental: Human airway smooth muscle (ASM) cells were obtained and passaged as described in Example 1. Subconfluent ASM cells in 96-well plates were washed 3 times in a modified Kreb-Ringer-Henseleit solution (KRH) containing 115 mM NaCl, 5 mM KCl, 1 mM KH2PO4, 1 mM MgSO4, 25 mM N-2-hydroxyethylpiperazine-N′-2-ethanesulfonic acid (HEPES), 15 mM glucose and 2 mM CaCl2. Cells were incubated in 1.0 μM fura 2-AM and pluronic F-127 (0.004%) for 60 minutes at room temperature. See, e.g., Wang et al., Am. J. Phys.; 272:C1151-C1159, 1997. After washing 3 times with KRH, cells were covered with 200 μl KRH and placed on the microscope stage. Reagents were added directly to the wells during calcium recordings. Fura 2-AM and F-127 were from Molecular Probes, Inc. (Eugene, Oreg.). Other chemicals were from Sigma (St. Louis, Mo.).
# Fluorescence was induced using computer-controlled 337 and 380 nm UV light generated by a nitrogen laser and a nitrogen laser-pumped dye laser, respectively (Laser Science, Franklin, Mass.). See, e.g., Ethier et al., Cell Calcium, 32:31-38 2002. […]
# Background from a cell free region of the cover glass was subtracted prior to data acquisition and then an 11×11 pixels area was selected over each cell. […] Fluorescence emissions stimulated by alternating pulses of ˜340 and 380 nm light were recorded and their ratios plotted. […]
# NF-KB = assay: EMSA of NF-KB binding in nuclear extracts of FLS cells; type: cell-based, human; conditions: 10 μM ajulemic acid for 1 hour
# From the text: Human fibroblast-like synovial (FLS) cells were isolated from synovial tissue or synovial fluid of patients with inflammatory arthritis (4 RA, 1 psoriatic arthritis) essentially as described (Stebulis et al., J. Rheumatol. 32:301-06, 2005). Briefly, synovial tissue obtained at the time of joint replacement surgery was minced and plated in tissue culture dishes with growth medium (MEM with 15% FBS, 1% penicillin/streptomycin solution, 1% nonessential amino acids). Synovial fluid was collected in heparinized syringes, then centrifuged at 1200 rpm for 15 min. The cell pellet was resuspended in growth medium, then plated in tissue culture flasks. After 2-4 days, primary cultures were washed with PBS to remove tissue fragments and nonadherent cells. FLS were incubated at 37° C. under 5% CO2 and passaged to 6-well tissue culture plates (split 1:3) when they reached confluence. Passages 2 through 8 were used for experiments.
# Experiments were done on FLS rested overnight in low serum medium (MEM/2% FBS). Medium was replaced before beginning the experiments. Cells were treated with 10 μM ajulemic acid for 1 hour then stimulated with 1 ng/ml TNF-α or left unstimulated. Controls were vehicle (0.3% DMSO) treated cells. […] Gels were scanned and analyzed using ADOBE® software for PC.
# IK-B = assay: Western blot of IK-B phosphorylation in TNF-α stimulated FLS cells; type: cell-based, human; conditions: FIG. 3
# Experimental: FLS cells were collected from human synovial fluid in heparinized syringes, then centrifuged at 1200 rpm (260 g) for 15 minutes. FLS cells are used herein as models of pulmonary fibroblasts and/or myofibroblasts. The resulting cell pellet was resuspended in 7 ml of growth medium (Dulbecco's Minimal Essential Medium with 15% heat-inactivated fetal bovine serum (FBS), 1% nonessential amino acids, 1% penicillin/streptomycin solution) and plated in 25 ml tissue culture flasks. Cultures were incubated at 37° C., under 5% CO2 for 24 to 48 hours after which medium was aspirated and cultures were washed with PBS to remove nonadherent cells. Growth medium was replaced every 3 to 4 days. After 10 to 14 days, adherent cells were harvested by trypsinization, washed, and transferred to 6-well tissue culture plates in fresh growth medium. FLS cells were passaged (split 1:3) at confluence, generally every 10 to 14 days.
# FLS cells at passage 2 through 6 were (i) untreated, (ii) treated with 1-30 μM of ajulemic acid in growth media, (iii) treated with 1 ng/ml of TNF-α in growth media, or (iv) treated with a combination of 1-30 μM of ajulemic acid and 1 ng/ml TNF-α for 10 minutes or 45 minutes. Cells were harvested and washed several times with PBS. Whole cell lysates were prepared in hypotonic HEPES buffer (7.45 g KCl/100 ml H2O; 3.80 g EGTA/100 ml H2O;0.87 g PMSF/500 ml H2O; 1.54 g DTT/10 ml H2O). […]
compound,measurement,setting,value
"CCCCCCC(C)(C)c1cc(O)c2c(c1)OC(C)(C)[C@@H]1CC=C(C(=O)O)C[C@@H]21 [ajulemic acid, 1′,1′dimethylheptyl-Δ8-THC-11-oic acid]",human ASM cell proliferation,[1],suppressed human ASM cell proliferation in a dose-dependent manner
same,"MMP-1 expression (mRNA, Northern blot)",MMP-1,downregulates MMP-1 expression in a dose-dependent manner
same,"calcium transients, histamine stimulated",human ASM cells; histamine,suppressed calcium transients
same,"calcium transients, thrombin stimulated",human ASM cells; thrombin,suppressed calcium transients
same,reduction of TNF-α induced NF-KB activation (binding to oligonucleotide corresponding to an NF-KB binding site),"NF-KB; then 1 ng/ml TNF-α, extracts 45 minutes after stimulation, lane 4 vs. lane 3",approximately 75%
same,nuclear binding of NF-KB in resting FLS,"NF-KB; unstimulated FLS, EMSA, lane 2 vs. lane 1",not altered
same,expression of the non-phosphorylated form of IK-B,"IK-B; 1-30 μM ajulemic acid with 1 ng/ml TNF-α, after 45 minutes",dramatically increased expression of the non-phosphorylated form of IK-B
same,phosphorylation of IK-B (phosphor-IK-B),"IK-B; 1-30 μM ajulemic acid, 10 minutes after stimulation with 1 ng/ml TNF-α",prevented phosphorylation of IK-B
